Assay results published in patent US20180133221A1, “ADMINISTRATION OF UBIQUITIN-ACTIVATING ENZYME INHIBITOR AND CHEMOTHERAPEUTIC AGENTS” (Millennium Pharmaceuticals, Inc., priority 2014, published 2018).
Where two headings read alike, the source gives them in different places.

Experiments:
[1] = test system: PHTX-132Lu non-small cell lung xenograft
Source text: The PHTX-132Lu non-small cell lung xenograft model was established from a patient-derived tumor collected during surgery from a person with lung cancer (Poorly Differentiated Adenocarcinoma). PHTX-132Lu tumor fragments (approximately 2×2×3 mm^3) are implanted into the subcutaneous space in the right dorsal flank of female CB-17 SCID mice (age 10 weeks, Charles River Laboratory, Wilmington, Mass.) using a 13-gauge trocar. When the mean tumor volume reached approximately 220 mm^3, the animals were randomized into 12 treatment groups (n=5/group).
(§1) Carboplatin (Teva Pharmaceuticals) is formulated in 0.9% saline and administered by IP injection once weekly (QW) at 25, 50, 60, and 75 mg/kg. The once weekly schedule is also described as every 7 days (Q7D).
(§2) Compound 1 [((1R,2R,3S,4R)-2,3-dihydroxy-4-(2-(3-(trifluoromethylthio)-phenyl)pyrazolo[1,5-a]pyrimidin-7-ylamino)cyclopentyl)methyl sulfamate] is formulated in 10-20% HPbCD in sterile water and administered intravenously (IV) or subcutaneously (SC) on a BIW (twice/week schedule; Monday and Thursday or Tuesday and Friday) for either 2-4 weeks.
(§3) Tumors were measured twice weekly using vernier calipers. Tumor volumes were calculated using the standard formula V=W^2×L/2,). When mean tumor volumes reached approximately 200 mm^3 for PHTX-24C, 220 mm^3 for PHTX-Lu132, 150 mm^3 for CTG-0256, 260 mm^3 for CTG-0486, 185 mm^3 for PHTX-17C, 260 mm^3 for CTG-0165, 150 mm^3 for PHTX-14B in the study of Compound 1 and paclitaxel, 180 mm^3 for PHTX-14B in the study of Compound 1 and docetaxel, 200 mm^3 for SKOV-3, 220 mm^3 for PHTX-02B in the study of Compound 1 and docetaxel, 250 mm^3 for PHTX-02B in the study of Compound 1 and paclitaxel, 195 mm^3 for CTG-0159, 180 mm^3 for CTG-0012 or 150 mm^3 for Calu-6, mice were randomized into groups of n=5-7/arm as described in the tables below, and injected with vehicle, Compound 1 or agents (docetaxel, paclitaxel, oxaliplatin, cisplatin or carboplatin), or the combination of Compound 1 plus one of the agents, at various doses and schedules as described in tables below. Tumor size and body weight were measured approximately twice a week for the duration of the study. Mice are euthanized when their tumor volume reached 10% of their body weight, or when the average tumor volume of a treatment or control group reached approximately 2000 mm^3. Tumor growth continued to be monitored after the dosing period in some studies. Average tumor volume is reported as a function of time for selected arms of selected studies in the Figures.
(§4) Measurements from day 0 to day 14, day 19, day 21, or day 28 are analyzed as specified in Tables below. All tumor volumes have a value of 1 added to them before log10 transformation. For each animal, the log tumor volume at day 0 is subtracted from the log tumor volume on the subsequent days. This difference vs. time is used to calculate an area under the curve (AUC) for each animal using the trapezoid rule. […] The synergy score for the combination of agents A and B is defined as
(§5) 100*(mean(AUCAB)−mean(AUCA)−mean(AUCB)+mean(AUCctl))/mean(AUCctl):
(§6) where AUCAB, AUCA, AUCB, and AUCctl are the AUC values for animals in the combination group, the A group, the B group, and the control group, respectively. The standard error of the synergy score is computed based on the variation in the AUC values among the animals. […] If the P-value is above 0.05, then the combination is considered to be additive. If the P-value is below 0.05, and the synergy score is less than zero, then the combination is considered to be synergistic.

[2] = test system: SKOV-3 ovarian cell-line derived xenograft; experiment: SKOV-3 xenograft model, Compound 1 and carboplatin; format: in vivo, nude mice; settings: for Tumor Volume Day 14: in mm³ (unit assumed)
Method: SKOV-3 is an ovarian cell-line derived xenograft. Ten week old female nude mice (Taconic Farms, Inc) were inoculated subcutaneously in flank (cell suspension) with 4.0×10^6 SKOV-3 cells suspended in serum free DMEM+Matrigel. When the mean tumor volume reached approximately 200 mm^3, the animals were randomized into 12 treatment groups (n=5/group).
as §1, §2, §3, §4, §5, §6

[3] = test system: CTG-0256 human ovarian xenograft; experiment: CTG-0256 xenograft model, Compound 1 and carboplatin; format: in vivo, Mus musculus/nu/nu mice
Source text: The CTG-0256 model of human ovarian xenograft model was established from a patient-derived tumor collected during surgery at primary site from a person with ovarian cancer (serous adenocarcinoma with resistant response to carboplatin or paclitaxel). CTG-0256 tumor fragments (approximately 2×2×3 mm^3) were implanted into the subcutaneous space in the right dorsal flank of female Mus musculus/nu/nu mice (age 6-9 weeks, Harlan Laboratories, Madison, Wis.) using a 13-gauge trocar. When the mean tumor volume reached approximately 150 mm^3, the animals were randomized into 7 treatment groups (n=7/group).
as §1, §2, §3, §4, §5, §6

[4] = test system: CTG-0486 human ovarian xenograft; format: in vivo
Source text: The CTG-0486 model of human ovarian xenograft model was established from a patient-derived tumor collected during surgery from a person with ovarian cancer (serous adenocarcinoma, metastases to the small bowel). CTG-0486 tumor fragments (approximately 2×2×3 mm^3) are implanted into the subcutaneous space in the right dorsal flank of female Mus musculus/nu/nu mice (age 6-9 weeks, Harlan Laboratories, Madison, Wis., USA) using a 13-gauge trocar needle. When the mean tumor volume reached approximately 260 mm3, the animals were randomized into 8 treatment groups (n=5/group).
[…] The once weekly schedule is also described as every 7 days (Q7D).
as §2, §3, §4, §5, §6

[5] = test system: CTG-0165 human lung NSCLC xenograft; experiment: CTG-0165 xenograft model, Compound 1 and cisplatin; format: in vivo, Mus musculus/nu/nu mice
Method: CTG-0165 tumor fragments (approximately 2×2×3 mm^3) were implanted into the subcutaneous space in the right dorsal flank of female Mus musculus/nu/nu mice (age 6-9 weeks, Harlan Laboratories, Madison, Wis., USA) using a 13-gauge trocar. When the mean tumor volume reached approximately 260 mm^3, the animals were randomized into 8 treatment groups (n=5/group).
Cisplatin (Teva Pharmaceuticals) is formulated in 0.9% saline and administered by IV injection once weekly (QW) at 7.5 mg/kg. The once weekly schedule is also described as every 7 days (Q7D).
as §2, §3, §4, §5, §6

[6] = test system: PHTX-02B breast xenograft; experiment: PHTX-02B xenograft model, Compound 1 and docetaxel; format: in vivo, SCID-NOD mice; settings: for Tumor Volume Day 21: in mm³ (unit assumed)
Method: (§7) Docetaxel (Henry Schein, Inc., Pittsburgh Pa.) is formulated in 0.9% saline and administered by intravenous injection (IV) once weekly (QW) at 5 mg/kg or 10 mg/kg. […] Tumors were measured twice weekly using vernier calipers.

[7] = test system: Calu-6 non-small cell lung cancer xenograft; experiment: Calu-6 xenograft model, Compound 1 and docetaxel; format: in vivo, nude mice; settings: for Tumor Volume Day 21: in mm³ (unit assumed)
Method: Calu-6 is a non-small cell lung cancer cell-lined derived xenograft model. Nine week old female nude mice (Taconic Farms, Inc) were inoculated subcutaneously in the flank (cell suspension) with 4.0×10^6 Calu-6 cells suspended in serum free MEM. […] Docetaxel (Henry Schein, Inc., Pittsburgh Pa.) is formulated in 0.9% saline and administered by intravenous injection (IV) once weekly (QW) at 5 mg/kg or 10 mg/kg. […] Tumors were measured twice weekly using vernier calipers.

[8] = test system: PHTX-14B breast xenograft; experiment: PHTX-14B xenograft model, Compound 1 and docetaxel; format: in vivo, nude mice; settings: for Tumor Volume Day 28: in mm³ (unit assumed)
Method: as §7

[9] = test system: CTG-0159 human lung NSCLC xenograft; experiment: CTG-0159 xenograft model, Compound 1 and docetaxel; format: in vivo, Mus musculus/nu/nu mice; settings: 10 mg/kg docetaxel QWx3 IV; in mm³ (unit assumed)
Method: as §7

PHTX-24C colon xenograft = experiment: PHTX-24C xenograft model, Compound 1 and oxaliplatin; format: in vivo, CB-17 SCID mice
Method: (§8) Oxaliplatin (Jiang Su Geng Rui Pharmaceuticals, Inc.) is formulated in 0.9% saline and administered by IP injection once weekly (QW) at 7.5 or 12.5 mg/kg. The once weekly schedule is also described as every 7 days (Q7D).
as §2, §3, §4, §5
where AUCAB, AUCA, AUCB, and AUCctl are the AUC values for animals in the combination group, the A group, the B group, and the control group, respectively. […]

[10] = test system: PHTX-17C colorectal carcinoma xenograft; format: in vivo; settings: for Tumor Volume Day 21: in mm³ (unit assumed)
Source text: The PHTX-17C colorectal carcinoma xenograft model was established from a patient-derived tumor collected during surgery from a person with moderately differentiated adenocarcinoma.PHTX-17C tumor fragments (approximately 2×2×3 mm^3) were implanted into the subcutaneous space in the right dorsal flank of female nude mice (age 5-7 weeks, Balb/c Nude Mice, Shanghai SINO-British SIPPR/BK Lab Animal Ltd, Shanghai, China) using a 13-gauge trocar. When the mean tumor volume reached approximately 185 mm^3, the animals were randomized into 12 treatment groups (n=5/group).
as §8, §2, §3, §4, §5, §6

[11] = test system: PHTX-02B breast xenograft; experiment: PHTX-02B xenograft model, Compound 1 and paclitaxel; format: in vivo, SCID-NOD mice; settings: for Tumor Volume Day 19: in mm³ (unit assumed)
Method: (§9) Paclitaxel (Bristol-Myers Squibb Company) is formulated in 0.9% saline and administered by intravenous injection (IV) on every 4 days (Q4D) or once weekly (QW) at 10 and 20 mg/kg. […] Tumors were measured twice weekly using vernier calipers.

[12] = test system: PHTX-14B breast xenograft; experiment: PHTX-14B xenograft model, Compound 1 and paclitaxel; format: in vivo, Balb/c Nude Mice; settings: for Tumor Volume Day 28: in mm³ (unit assumed)
Method: as §9

[13] = test system: CTG-0012 human primary triple negative breast cancer model; experiment: CTG-0012 xenograft model, Compound 1 and paclitaxel; format: in vivo, Mus musculus/nu/nu mice
Method: as §9

[14] = single agent docetaxel 5 and 10 mg/kg IV QW
[15] = single agent paclitaxel IV at 10 mg/kg Q4D for 3 weeks

N.N.O=C([O-])C1(C(=O)[O-])CCC1.[Pt+2] [carboplatin, reference compound]
Tumor Volume Day 21 ([1]; 25 mg/kg carboplatin Q7Dx3 IP, in mm³ (unit assumed)): 727
tolerability ([1]; 75 mg/kg carboplatin Q7D×3 as single agent (study group 2)): not tolerated
anti-tumor activity compared to vehicle control ([1]; single agent carboplatin 25 mg/kg IP Q7D): modest anti-tumor activity
Tumor Volume Day 14 ([2]; 25 mg/kg carboplatin Q7Dx2 IP): 932.8
Tumor Volume Day 14 ([2]; 75 mg/kg carboplatin Q7Dx2 IP): 798.5
anti-tumor activity compared to vehicle control ([2]; single agent carboplatin 25 and 75 mg/kg IP Q7D): modest anti-tumor activity
Volume Tumor Day 14 ([3]; 50 mg/kg carboplatin Q7Dx2 IP, in mm³ (unit assumed)): 1898.1
anti-tumor activity compared to vehicle control ([3]; single agent carboplatin IP at 50 mg/kg Q7D): modest to weak anti-tumor activity
Tumor Volume Day 21 ([4]; 60 mg/kg carboplatin Q7Dx3 IV, in mm³ (unit assumed)): 400.6
anti-tumor activity compared to vehicle control ([4]; single agent carboplatin IP at 60 mg/kg Q7D for 3 weeks): modest to strong anti-tumor activity

N.N.[Cl][Pt][Cl] [cisplatin, reference compound]
Tumor Volume Day 21 ([5]; 7.5 mg/kg cisplatin QWx3 IV, in mm³ (unit assumed)): 489.3
anti-tumor activity compared to vehicle control ([5]; single agent cisplatin 7.5 mg/kg Q7D): modest to weak anti-tumor activity

CC(=O)O[C@@]12CO[C@@H]1C[C@H](O)[C@@]1(C)C(=O)[C@H](O)C3=C(C)[C@@H](OC(=O)[C@H](O)[C@@H](NC(=O)OC(C)(C)C)c4ccccc4)C[C@@](O)([C@@H](OC(=O)c4ccccc4)[C@H]21)C3(C)C [docetaxel, reference compound]
Tumor Volume Day 21 ([6]; 5 mg/kg docetaxel Q7Dx3 IV): 492.3
Tumor Volume Day 21 ([6]; 10 mg/kg docetaxel Q7Dx3 IV): 232.2
tumor growth compared to the vehicle control group [6, 14]: inhibited tumor growth
Tumor Volume Day 21 ([7]; 5 mg/kg docetaxel Q7Dx3 IV): 743.7
Tumor Volume Day 21 ([7]; 10 mg/kg docetaxel Q7Dx3 IV): 882.6
anti-tumor responses compared to the vehicle control [7, 14]: modest anti-tumor responses
Tumor Volume Day 28 ([8]; 5 mg/kg docetaxel Q7Dx3 IV): 590.4
Tumor Volume Day 28 ([8]; 10 mg/kg docetaxel Q7Dx3 IV): 195.5
tumor growth compared to the vehicle control group [8, 14]: inhibited tumor growth
Tumor Volume Day 21 [9]: 103.2

O=C1[O][Pt]2([NH][C@@H]3CCCC[C@H]3[NH]2)[O]C1=O [oxaliplatin, reference compound]
Tumor Volume Day 21 (PHTX-24C colon xenograft; 7.5 mg/kg oxaliplatin Q7Dx2 IP, in mm³ (unit assumed)): 720.6
anti-tumor activity compared to vehicle control (PHTX-24C colon xenograft; single agent oxaliplatin 7.5 mg/kg IP Q7D): modest anti-tumor activity
Tumor Volume Day 21 ([10]; 7.5 mg/kg oxaliplatin Q7Dx3 IP): 2017.5
Tumor Volume Day 21 ([10]; 12.5 mg/kg oxaliplatin Q7Dx3 IP): 1758.9
anti-tumor activity compared to vehicle control ([10]; single agent oxaliplatin IP at 7.5 or 12.5 mg/kg Q7D): modest anti-tumor activity

CC(=O)O[C@H]1C(=O)[C@@]2(C)[C@H]([C@H](OC(=O)c3ccccc3)[C@]3(O)C[C@H](OC(=O)[C@H](O)[C@@H](NC(=O)c4ccccc4)c4ccccc4)C(C)=C1C3(C)C)[C@]1(OC(C)=O)CO[C@@H]1C[C@@H]2O [paclitaxel, reference compound]
Tumor Volume Day 19 ([11]; 10 mg/kg paclitaxel Q4Dx3 IV): 1093.5
Tumor Volume Day 19 ([11]; 20 mg/kg paclitaxel Q4Dx3 IV): 245.2
anti-tumor activity ([11]; paclitaxel IV at 20 mg/kg Q4D for 3 weeks): strong anti-tumor activity
anti-tumor activity compared to vehicle control [11, 15]: minimal to modest anti-tumor activity
Tumor Volume Day 28 ([12]; 10 mg/kg paclitaxel Q7Dx4 IV): 584.4
Tumor Volume Day 28 ([12]; 20 mg/kg paclitaxel Q7Dx4 IV): 283.6
anti-tumor activity ([12]; paclitaxel 20 mg/kg IV Q7D for 4 weeks): strong anti-tumor activity
anti-tumor activity compared to vehicle control ([12]; single agent paclitaxel 10 mg/kg IV Q7D for 4 weeks): modest anti-tumor activity
Tumor Volume Day 21 ([13]; 10 mg/kg paclitaxel Q4Dx3 IV, in mm³ (unit assumed)): 731.1
anti-tumor activity compared to vehicle control [13, 15]: modest to strong anti-tumor activity
